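Compound exposure: 48 hours, 5 concentrations, 96-well plates. GI50 marks 50% less growth. At the TGI there is no net growth.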
Assays:
Assay in all cases: growth of human tumour cells (NCI), 48 h
[1] = test system: 786-0 renal
[2] = test system: A498 renal
[3] = test system: A549 NSCLC
[4] = test system: ACHN renal
[5] = test system: BT-549 breast
[6] = test system: CAKI-1 renal
[7] = test system: CCRF-CEM leukemia
[8] = test system: COLO 205 colon
[9] = test system: DU-145 prostate
[10] = test system: EKVX NSCLC
[11] = test system: HCC-2998 colon
[12] = test system: HCT-116 colon
[13] = test system: HCT-15 colon
[14] = test system: HL-60(TB) leukemia
[15] = test system: HOP-62 NSCLC
[16] = test system: HOP-92 NSCLC
[17] = test system: HS 578T breast
[18] = test system: HT29 colon
[19] = test system: IGROV1 ovarian
[20] = test system: K-562 leukemia
[21] = test system: KM12 colon
[22] = test system: LOX IMVI melanoma
[23] = test system: M14 melanoma
[24] = test system: MALME-3M melanoma
[25] = test system: MCF7 breast
[26] = test system: MDA-MB-231 breast
[27] = test system: MDA-MB-435
[28] = test system: MOLT-4 leukemia
[29] = test system: NCI-H226 lung
[30] = test system: NCI-H23 lung
[31] = test system: NCI-H460 lung
[32] = test system: NCI-H522 lung
[33] = test system: NCI/ADR-RES ovarian
[34] = test system: OVCAR-3 ovarian
[35] = test system: OVCAR-4 ovarian
[36] = test system: OVCAR-5 ovarian
[37] = test system: OVCAR-8 ovarian
[38] = test system: PC-3 prostate
[39] = test system: RPMI-8226 leukemia
[40] = test system: RXF 393 renal
[41] = test system: SF-268 CNS
[42] = test system: SF-295 CNS
[43] = test system: SF-539 CNS
[44] = test system: SK-MEL-2 melanoma
[45] = test system: SK-MEL-28 melanoma
[46] = test system: SK-MEL-5 melanoma
[47] = test system: SK-OV-3 ovarian
[48] = test system: SN12C renal
[49] = test system: SNB-19 CNS
[50] = test system: SNB-75 CNS
[51] = test system: SW-620 colon
[52] = test system: T-47D breast
[53] = test system: TK-10 renal
[54] = test system: U251 CNS
[55] = test system: UACC-257 melanoma
[56] = test system: UACC-62 melanoma
[57] = test system: UO-31 renal
[58] = test system: SR leukemia

## C=C(CO)[C@@H]1CC[C@]2(COC3CCCCO3)CC[C@]3(C)[C@H](CC[C@@H]4[C@@]5(C)C=C(C=O)C(=O)C(C)(C)[C@@H]5CC[C@]43C)[C@@H]12 (stereo partly drawn)
[1]
  GI50: 0.185 µM
  TGI: 0.406 µM
[2]
  GI50: 0.234 µM
  TGI: 0.938 µM
[3]
  GI50: 0.495 µM
  TGI: 1.87 µM
[4]
  GI50: 0.21 µM
  TGI: 0.488 µM
[5]
  GI50: 0.221 µM
  TGI: 619 nM
[6]
  GI50: 0.245 µM
  TGI: 0.7 µM
[7]
  GI50: 0.211 µM
  TGI: 1.12 µM
[8]
  GI50: 0.273 µM
  TGI: 833 nM
[9]
  GI50: 0.523 µM
  TGI: 1720 nM
[10]
  GI50: 0.259 µM
  TGI: 856 nM
[11]
  GI50: 0.286 µM
  TGI: 0.838 µM
[12]
  GI50: 0.303 µM
  TGI: 1.08 µM
[13]
  GI50: 0.247 µM
  TGI: 718 nM
[14]
  GI50: 0.25 µM
  TGI: 994 nM
[15]
  GI50: 1.51 µM
  TGI: 3.23 µM
[16]
  GI50: 147 nM
  TGI: 312 nM
[17]
  GI50: 0.318 µM
  TGI: 997 nM
[18]
  GI50: 0.327 µM
  TGI: 1.1 µM
[19]
  GI50: 0.231 µM
  TGI: 0.515 µM
[20]
  GI50: 0.316 µM
  TGI: 1280 nM
[21]
  GI50: 0.555 µM
  TGI: 1940 nM
[22]
  GI50: 0.191 µM
  TGI: 392 nM
[23]
  GI50: 0.247 µM
  TGI: 0.672 µM
[24]
  GI50: 0.222 µM
  TGI: 0.544 µM
[25]
  GI50: 479 nM
  TGI: 1970 nM
[26]
  GI50: 0.214 µM
  TGI: 0.565 µM
[27]
  GI50: 0.214 µM
  TGI: 0.494 µM
[28]
  GI50: 307 nM
  TGI: 1210 nM
[29]
  GI50: 0.538 µM
  TGI: 1470 nM
[30]
  GI50: 0.311 µM
  TGI: 1020 nM
[31]
  GI50: 500 nM
  TGI: 1750 nM
[32]
  GI50: 0.205 µM
  TGI: 0.487 µM
[33]
  GI50: 0.479 µM
  TGI: 1.8 µM
[34]
  GI50: 0.207 µM
  TGI: 0.428 µM
[35]
  GI50: 0.298 µM
  TGI: 0.979 µM
[36]
  GI50: 0.232 µM
  TGI: 0.853 µM
[37]
  GI50: 0.356 µM
  TGI: 1440 nM
[38]
  GI50: 0.237 µM
  TGI: 0.973 µM
[39]
  GI50: 0.244 µM
  TGI: 0.777 µM
[40]
  GI50: 0.172 µM
  TGI: 0.334 µM
[41]
  GI50: 297 nM
  TGI: 979 nM
[42]
  GI50: 0.506 µM
  TGI: 1.79 µM
[43]
  GI50: 0.196 µM
  TGI: 0.428 µM
[44]
  GI50: 0.448 µM
  TGI: 1820 nM
[45]
  GI50: 0.254 µM
  TGI: 688 nM
[46]
  GI50: 0.38 µM
  TGI: 1.46 µM
[47]
  GI50: 1.3 µM
  TGI: 2680 nM
[48]
  GI50: 0.228 µM
  TGI: 0.671 µM
[49]
  GI50: 414 nM
  TGI: 1440 nM
[50]
  GI50: 0.206 µM
  TGI: 0.625 µM
[51]
  GI50: 0.267 µM
  TGI: 832 nM
[52]
  GI50: 0.332 µM
  TGI: 1.65 µM
[53]
  GI50: 0.257 µM
  TGI: 688 nM
[54]
  GI50: 0.209 µM
  TGI: 0.546 µM
[55]
  GI50: 0.367 µM
  TGI: 1.61 µM
[56]
  GI50: 0.177 µM
  TGI: 0.386 µM
[57]
  GI50: 0.187 µM
  TGI: 0.433 µM

## CO/N=C(\COc1ccc2oc(-c3ccccc3)cc(=O)c2c1)c1ccc(OC)cc1
[1]
  GI50: 21.9 µM
  TGI: 48.9 µM
[2]
  GI50: 23.7 µM
  TGI: 66.3 µM
[3]
  GI50: 24.4 µM
  TGI: 73 µM
[4]
  GI50: 23.4 µM
  TGI: 51.9 µM
[5]
  GI50: 41.2 µM
  TGI: > 100000 nM
[6]
  GI50: 22.7 µM
  TGI: 69.2 µM
[7]
  GI50: 29.7 µM
  TGI: 74.8 µM
[8]
  GI50: 30.8 µM
  TGI: > 100000 nM
[9]
  GI50: 31 µM
  TGI: > 100000 nM
[10]
  GI50: 37.3 µM
  TGI: > 100000 nM
[11]
  GI50: 21.4 µM
  TGI: 48.6 µM
[12]
  GI50: 16.9 µM
  TGI: 33.8 µM
[13]
  GI50: 30.2 µM
  TGI: > 100000 nM
[14]
  GI50: 6.16 µM
  TGI: > 100000 nM
[15]
  GI50: 17 µM
  TGI: 33 µM
[17]
  GI50: 35.1 µM
  TGI: > 100000 nM
[18]
  GI50: 19.7 µM
  TGI: 48.6 µM
[19]
  GI50: 17.9 µM
  TGI: 42.8 µM
[20]
  GI50: 27.3 µM
  TGI: > 100000 nM
[21]
  GI50: 27.1 µM
  TGI: > 100000 nM
[22]
  GI50: 41.4 µM
  TGI: > 100000 nM
[23]
  GI50: 21.4 µM
  TGI: 49.2 µM
[24]
  GI50: 24.8 µM
  TGI: 63.8 µM
[26]
  GI50: 22 µM
  TGI: 45.2 µM
[27]
  GI50: 15 µM
  TGI: 36.9 µM
[29]
  GI50: 50.1 µM
  TGI: > 100000 nM
[30]
  GI50: 32.4 µM
  TGI: > 100000 nM
[32]
  GI50: 17.8 µM
  TGI: 37.4 µM
[33]
  GI50: 21.9 µM
  TGI: 51.4 µM
[34]
  GI50: 22.7 µM
  TGI: 71 µM
[35]
  GI50: 19.7 µM
  TGI: 73.9 µM
[36]
  GI50: 24.6 µM
  TGI: 82.7 µM
[37]
  GI50: 31.8 µM
  TGI: > 100000 nM
[38]
  GI50: 29.9 µM
  TGI: 98.5 µM
[39]
  GI50: 27.9 µM
  TGI: 81.9 µM
[40]
  GI50: 29 µM
  TGI: 97.5 µM
[42]
  GI50: 21.7 µM
  TGI: 48.9 µM
[43]
  GI50: 24.4 µM
  TGI: 64.7 µM
[44]
  GI50: 31 µM
  TGI: > 100000 nM
[45]
  GI50: 30.7 µM
  TGI: > 100000 nM
[46]
  GI50: 22.2 µM
  TGI: 46.7 µM
[47]
  GI50: 59.3 µM
  TGI: > 100000 nM
[48]
  GI50: 19.3 µM
  TGI: 44.7 µM
[50]
  GI50: 25.4 µM
  TGI: 54.5 µM
[58]
  GI50: 11.3 µM
  TGI: 36.9 µM
[51]
  GI50: 25.6 µM
  TGI: > 100000 nM
[52]
  GI50: 22.8 µM
  TGI: 63.8 µM
[53]
  GI50: 41.4 µM
  TGI: > 100000 nM
[54]
  GI50: 22.3 µM
  TGI: 53.6 µM
[55]
  GI50: 23.4 µM
  TGI: 63.3 µM
[56]
  GI50: 27 µM
  TGI: 84.7 µM
[57]
  GI50: 22.8 µM
  TGI: 58.5 µM
